For assay [1], the system named is mushroom-derived tyrosinase. In words: Mushroom tyrosinase inhibition test. In kind it is biochemical. To be noted: L-tyrosine substrate, 37° C. 30 minutes. The method, then: After reaction, the absorbance (OD) at a wavelength of 490 nm was measured and the degree of inhibition of tyrosinase reaction was determined according to the following equation. […] Sample: The buffer, the enzyme solution, the substrate solution and the sample solution Sample-free: The buffer, the enzyme solution and the substrate solution Blank: The buffer and the enzyme solution

Assay [2] concerns the target T1, tyrosinase in B16 melanoma cells (Mus musculus, UniProt P11344).
T1 construct: the resulting supernatant was used as a crude enzyme solution; endogenous in cells; host or cells: B16 melanoma cells (Triton X100 lysate, sonicated, 11,000 G supernatant)
T1 sequence (P11344 19-533): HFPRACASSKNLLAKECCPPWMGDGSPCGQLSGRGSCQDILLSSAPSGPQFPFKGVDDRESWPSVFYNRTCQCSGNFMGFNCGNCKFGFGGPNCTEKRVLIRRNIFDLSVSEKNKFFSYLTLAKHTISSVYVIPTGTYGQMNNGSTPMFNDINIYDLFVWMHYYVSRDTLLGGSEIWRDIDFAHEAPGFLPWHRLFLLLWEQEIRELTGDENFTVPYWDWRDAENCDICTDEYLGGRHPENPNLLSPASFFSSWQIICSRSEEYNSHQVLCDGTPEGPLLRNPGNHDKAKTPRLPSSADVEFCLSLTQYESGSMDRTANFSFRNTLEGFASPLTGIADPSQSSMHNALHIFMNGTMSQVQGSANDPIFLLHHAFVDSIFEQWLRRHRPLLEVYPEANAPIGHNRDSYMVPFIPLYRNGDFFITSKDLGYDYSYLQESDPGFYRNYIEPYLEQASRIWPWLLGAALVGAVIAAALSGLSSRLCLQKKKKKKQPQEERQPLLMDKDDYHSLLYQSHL
In words: Test of tyrosinase inhibition in B16 melanoma cells (crude enzyme solution). In kind it is biochemical. To be noted: L-DOPA substrate, 37° C. 3 hours; for Degree of inhibition of tyrosinase in B16 melanoma cells: 25 ppm. The protocol: B16 melanoma cells were cultured for 3 days in DMEM containing 10% FBS at 37° C. in the presence of 5% carbon dioxide. The cells proliferated after culture were recovered by treatment with trypsin, then suspended in PBS containing 0.1% Triton X100 at a density of ten million cells/ml and disrupted by sonication. The product obtained was centrifuged at 11,000 G for 20 minutes, and the resulting supernatant was used as a crude enzyme solution. Added thereto was 0.2 ml of crude enzyme solution. The mixture was preliminarily kept at 37° C. for 5 minutes, and 0.2 ml L-DOPA solution (0.5 mg/ml) was added as the substrate, and the mixture was kept at 37° C. for 3 hours.

The test system of assay [3] is B16 melanoma cells. In words: Combination test with existing tyrosinase inhibitors (method of Test Example 1). In kind it is cell-based. To be noted: alone. The method, then: B16 melanoma cells were suspended (10,000 cells/ml) in DMEM (Dulbecco's modified eagle medium) containing 10% FBS (fetal bovine serum) and 8 ml of the suspension was added to a cell culture bottle with a 25 cm^2 bottom surface area, and cultured at 37° C. in the presence of 5% carbon dioxide for 3 days. After 3 days of culture, the old medium was exchanged with 8 ml of fresh medium. 40 micro-liters of a sample solution, in which compounds of the present invention had been dissolved in ethanol to give a final concentration shown in the table, were further added thereto. As the control, ethanol only was added. After the medium change, the cells were further cultured for 3 days under the same conditions. […] Degree of cell proliferation (%)=(number of cells in sample)/(number of cells in control)×100 […] Using a calibration curve of synthetic melanin, the amount of melanin/million cells was determined from the OD and the degree of inhibition of melanin production was determined according to the following equation: Degree of inhibition of melanin (%)=(amount of melanin in control−amount of melanin in sample)/(amount of melanin in control)×100 […]

Assay [4] concerns B16 melanoma cells. In words: Melanin formation prevention test (melanin production and cell proliferation). The note with it: for Degree of cell proliferation: relative to ethanol control. In kind it is cell-based. The method, then:
B16 melanoma cells were suspended (10,000 cells/ml) in DMEM (Dulbecco's modified eagle medium) containing 10% FBS (fetal bovine serum) and 8 ml of the suspension was added to a cell culture bottle with a 25 cm^2 bottom surface area, and cultured at 37° C. in the presence of 5% carbon dioxide for 3 days. After 3 days of culture, the old medium was exchanged with 8 ml of fresh medium. 40 micro-liters of a sample solution, in which compounds of the present invention had been dissolved in ethanol to give a final concentration shown in the table, were further added thereto. As the control, ethanol only was added. After the medium change, the cells were further cultured for 3 days under the same conditions. After culture was finished, the medium was removed, and the cells were recovered by treatment with trypsin (DIFCO) and suspended in 4 ml of phosphate buffered saline (PBS) and a predetermined amount ( 1/40) of this suspension was used to measure the number of cells in a Coultar counter (Sysmex Co.) to determine the degree of cell proliferation.
The degree of cell proliferation was determined according to the following equations:
Degree of cell proliferation (%)=(number of cells in sample)/(number of cells in control)×100
The remainder of the cell suspension was centrifuged and then washed with 5% trichloroacetic acid, then with ethanol/ethyl ether (3:1 by volume), and with ethyl ether and the cells were dried, and 2N—NaOH was added thereto to dissolve (melanin in) the cells under heating at 70° C. and measured for its optical density (OD) at 420 nm. Using a calibration curve of synthetic melanin, the amount of melanin/million cells was determined from the OD and the degree of inhibition of melanin production was determined according to the following equation:
Degree of inhibition of melanin (%)=(amount of melanin in control−amount of melanin in sample)/(amount of melanin in control)×100

Assay [5] concerns Human-derived normal skin fibroblasts (NB1RGB). In words: Test of cell activating activity (fibroblast proliferation). Type of assay: cell-based. The note with it: relative to ethanol control (100). The method, then:
Human-derived normal skin fibroblasts (NB1RGB: Institute of Physical and Chemical Research) were suspended into DMEM containing 10% FBS to give a concentration of 20,000 cells/ml, and 5 ml each of this cellular suspension was introduced into each of 25 cm^2 bottles, cultured at 37° C. in the presence of 5% carbon dioxide for 24 hours. To each bottle, was added 10 micro-liter (0.2%) of the ethanol solution containing the compound to give the final concentration shown in Table 8. The cells were cultured for an additional 3 days. After 3 days the old medium was discarded and 5 ml fresh medium was added, and the sample was further added thereto. After this exchange of the medium, the cells were further cultured for another 3 days. Then cells were removed with trypsin and the number of cells in each bottle was counted with a Coultar counter. Simultaneously, as the control, only ethanol was added and the NB1RGB cells were cultured and the number of cells were counted in the same manner. The number of cells in each bottle to which the sample had been added was determined as a relative value to the number (as 100) of cells in the control after cultured, and the results are shown in Table 8.

The subject of assay [6] is Corynebacterium minutissimum ATCC 23348. In words: Anti-bacterial activity test, agar medium dilution method. Type of assay: cell-based. To be noted: Cm-1. The protocol:
(§1) The aerobic microorganisms were examined in an agar medium dilution method and the anaerobic microorganisms were examined in a liquid medium dilution method under anaerobic culture conditions. Muller Hinton agar medium (DIFCO) was heated and dissolved and 10 ml of the medium was introduced into each test tube, sterilized and used. The sample was prepared by dissolving in ethanol and the resulting ethanol solution was diluted 2-fold serially with ethanol, and 100 micro-liters of sample solution were added to 10 ml of each dissolved agar medium, then stirred, introduced into a Petri dish of 9 cm in diameter, and solidified at room temperature. Each test microorganism in a well grown slant was inoculated via one loop of platinum into 10 ml Muller Hinton broth (DIFCO) and cultured with shaking at 27° C. for 24 hours and used as a microbial fluid. This fluid was diluted at 10^8 CFU (Colony forming unit)/ml, and 5 micro-liters of the diluted fluid were inoculated onto the agar and cultured at 37° C. overnight. Inoculation of the microorganism was conducted using microplanter MIT-P for 27 tubes test microorganisms (Sakuma Seisakusho K. K.).

Assay [7] deals with Bacillus subtilis PCI 219 IFO 3134. The assay is described as above. Type of assay: cell-based. To be noted: Bs-1. The protocol: as §1
Assay [8] relates to Staphylococcus aureus IFO 12732. The assay is described as above. In kind it is cell-based. To be noted: Sa-3. The method, then:
as §1

Assay [9] concerns Corynebacterium xerosis JCM 1324. The description is as above. In kind it is cell-based. To be noted: Cx-2. The protocol:
as §1

For assay [10], the system named is Staphylococcus epidermidis var. H-6. The description is as above. The note with it: Se-2. In kind it is cell-based. The protocol:
as §1

The subject of assay [11] is Malassezia furfur IFO 0656. The assay is described as above. Type of assay: cell-based. The note with it: Mf-1. The protocol:
as §1

For assay [12], the system named is Staphylococcus epidermidis JCM 2414. The assay is described as above. In kind it is cell-based. To be noted: Se-1. The protocol: as §1
[13] abbreviates: 0.4 ppm, Table 2, combined use with arbutin.
The mark [14] stands for this setting: 0.4 ppm, Table 4, combined use with ellagic acid.

SMILES strings stand for the structures.

Experimental findings from US6384074B1, “Cell growth activating composition containing compound having labdane structure” (Takasago International Corporation, priority 1998, dated 2002) are described below.

Consider `OC[C@H]1O[C@@H](Oc2ccc(O)cc2)[C@H](O)[C@@H](O)[C@@H]1O` [Arbutin, reference compound], for which, in assay [1] (100 ppm), the “Degree of inhibition of mushroom tyrosinase” value turned out to be 29%. The inhibition at 100 ppm in assay [2] (100 ppm, read-out: Degree of inhibition of tyrosinase in B16 melanoma cells) came to 35%. Further, the “Degree of cell proliferation” value in the assay with B16 melanoma cells [3] (0.8 ppm, Table 2, combined use with arbutin) was 89%; in the assay with B16 melanoma cells [4] (6.3 ppm) it was 100%. Moreover, the inhibition at 0.8 ppm with B16 melanoma cells [3] (Mus musculus, B16, 0.8 ppm, Table 2, combined use with arbutin, read-out: Degree of melanin inhibition) amounted to 22%. Further, in the assay on B16 melanoma cells [4] (Mus musculus, 72 h, 6.3 ppm, 3 days, read-out: Degree of melanin inhibition), the inhibition at 6.3 ppm was determined as 74%.

Take `CCOC(=O)CC(C)CCC1=C(C)CCC2C(C)(C)CCCC12C` (centres unmarked) [Compound 3, labd-8-en-15-oic acid ethyl ester]: the “Degree of cell proliferation of fibroblasts” value (“Degree … of fibroblasts” for short) in assay [5] (8.0 ppm) was found to be 134%. The “Degree of melanin inhibition” value in the assay on B16 melanoma cells [4] (6.3 ppm, 3 days) is listed as 74%. Further, the “Degree of cell proliferation” value in the assay with B16 melanoma cells [4] (6.3 ppm) is listed as 115%.

For `CC1=CCC2C(C)(C)CCCC2(C)C1CCC(C)CC(=O)O` (centres unmarked) [Compound 4, labd-7-en-15-oic acid], the MIC in [6] amounted to 6.3 ppm; in assay [7], 12.5 ppm; in [8], 12.5 ppm; in assay [9], 12.5 ppm; in assay [10], 12.5 ppm; in assay [11] it was 6.3 ppm. The MIC in [12] worked out at 12.5 ppm. In assay [1] (25 ppm), the “Degree of inhibition of mushroom tyrosinase” value is 0%. Also, the “Degree of inhibition of tyrosinase in B16 melanoma cells” value in [2] is reported as 0%. Besides, the “Degree of cell proliferation” value with B16 melanoma cells [3] (setting [13]) is reported as 115%; with B16 melanoma cells [4] (6.3 ppm), 109%. Besides, the “Degree of melanin inhibition” value in the assay on B16 melanoma cells [3] (setting [13]) was 28%; in the assay on B16 melanoma cells [4] (6.3 ppm, 3 days) it was 87%.

For `CCOC(=O)CC(C)CCC1C(C)=CCC2C(C)(C)CCCC12C` (centres unmarked) [Compound 6, labd-7-en-15-oic acid ethyl ester], in assay [5] (8.0 ppm), the “Degree … of fibroblasts” value is recorded as 134%. Further, the “Degree of melanin inhibition” value in the assay on B16 melanoma cells [4] (6.3 ppm, 3 days) is 74%. For the same compound, the “Degree of cell proliferation” value in the assay with B16 melanoma cells [4] (6.3 ppm) is reported as 109%.

As to `C=C1CCC2C(C)(C)CCCC2(C)C1CCC(C)CC(=O)O` (centres unmarked) [Compound 7, labd-8(17)-en-15-oic acid], the MIC in assay [6] amounted to 12.5 ppm; in [7], 12.5 ppm; in [8], 12.5 ppm; in [9], 12.5 ppm; in [10], 6.3 ppm; in [11], 6.3 ppm. The MIC in assay [12] was found to be 6.3 ppm. In addition, the “Degree of inhibition of mushroom tyrosinase” value in assay [1] (25 ppm) is 0%. For the same compound, in assay [2], the “Degree of inhibition of tyrosinase in B16 melanoma cells” value is listed as 0%. The “Degree of cell proliferation” value in the assay on B16 melanoma cells [3] (setting [14]) and in the assay on B16 melanoma cells [4] (6.3 ppm) was 111% each time. In addition, the “Degree of melanin inhibition” value amounted to 30% in the assay on B16 melanoma cells [3] (setting [14]) and 79% with B16 melanoma cells [4] (6.3 ppm, 3 days). The “Degree … of fibroblasts” value in assay [5] (8.0 ppm) turned out to be 128%.

Regarding `C=C1CCC2C(C)(C)CCCC2(C)C1CCC(C)CC(=O)OCC` (centres unmarked) [Compound 9, labd-8(17)-en-15-oic acid ethyl ester], in [5] (8.0 ppm), the “Degree … of fibroblasts” value stood at 127%. Also, in the assay with B16 melanoma cells [4] (6.3 ppm, 3 days), the “Degree of melanin inhibition” value is 61%. The “Degree of cell proliferation” value with B16 melanoma cells [4] (6.3 ppm) is listed as 103%.

With `O=c1oc2c(O)c(O)cc3c(=O)oc4c(O)c(O)cc1c4c23` [Ellagic acid, reference compound], the “Degree of cell proliferation” value was found to be 98% in the assay on B16 melanoma cells [3] (1.6 ppm, Table 4, combined use with ellagic acid) and 98% in the assay with B16 melanoma cells [4] (3.1 ppm). The inhibition at 1.6 ppm in the assay with B16 melanoma cells [3] (Mus musculus, B16, 1.6 ppm, Table 4, combined use with ellagic acid, read-out: Degree of melanin inhibition) is 17%. Moreover, in the assay on B16 melanoma cells [4] (Mus musculus, 72 h, 3.1 ppm, 3 days, read-out: Degree of melanin inhibition), the inhibition at 3.1 ppm was 68%.

On to `O=C(O)CO` [Glycolic acid, reference compound], for which the “Degree … of fibroblasts” value in assay [5] (4.0 ppm) is on record as 120%.
